Target: T1, Ca^2+-CaM (wild type rat calmodulin) (Rattus norvegicus, UniProt P0DP29)
T1 construct: made in house
Test: Isothermal titration calorimetry, peptide into Ca2+-CaM
Format: binding
Settings: peptide titrated into Ca2+-CaM alone; 25 mM Tris-Cl pH 7.5, 75 mM NaCl, 0.5 mM CaCl2; 25°C; one-set-of-sites model; SEM printed separately in figure
Description: All peptides were resuspended in mili-Q deionized water to 1 mM stocks and stored at −80°C in small aliquots.
All ITC recordings were performed on a Microcal ITC200 from Microcal (Northampton, MA) at 25°C. In all experiments the buffer used was 25 mM Tris-Cl pH 7.5, 75 mM NaCl and 0.5 mM CaCl2 and was identical between cell and syringe. […] Data analysis was performed using Origin ITC200 Origin70 module with pre-loaded fitting equations for one- and two-sites models.

For `CC[C@H](C)[C@H](NC(=O)[C@H](C)NC(=O)[C@H](C)NC(=O)[C@H](CCC(N)=O)NC(=O)[C@H](Cc1c[nH]c2ccccc12)NC(=O)[C@@H](N)CO)C(=O)N[C@@H](CC(=O)O)C(=O)N[C@@H](C)C(=O)N[C@@H](C)C(=O)N[C@@H](CCCNC(=N)N)C(=O)N[C@@H](CCC(N)=O)C(=O)N[C@@H](C)C(=O)N[C@@H](CCCCN)C(=O)N[C@@H](CC(C)C)C(=O)N[C@@H](CCSC)C(=O)NCC(=O)N[C@@H](CO)C(=O)O` [NSCaTECav1.2], the Kd was 830 nM.

Reference: paper PMC3634016, “The Calmodulin-Binding, Short Linear Motif, NSCaTE Is Conserved in L-Type Channel Ancestors of Vertebrate Cav1.2 and Cav1.3 Channels” (PLoS ONE, 2013)
